Ends that are not written are not given here.
Experiments:
[1] = system: outflow pathway cells of perfused porcine eyes; assay: Morphological studies of perfused eyes (transmission electron microscopy of outflow pathway); settings: porcine eyes perfused with peptide, 4 pairs, versus sham controls
Method: After completion of RGD perfusion experiments, 4 pairs of the experimental and the control eyes were fixed for morphological examination. The fixation was performed by perfusing overnight at constant pressure of 15 mmHg with perfusion buffer containing 2.5% gluteraldehyde and 2.0% formaldehyde. Small cross-section wedges of the outflow pathway area of fixed eyes were prepared for transmission electron microscopy as described previously (Epstein et al, Invest. Ophthalmol Vis. Sci. 40:74-8116 (1999)). The specimens were fixed in 1% osmium tetraoxide in 0.1 M sodium cacodylate buffer and stained with 1% uranyl acetate for 1 hr in dark. Further, the tissues were dehydrated, infiltrated and embedded on Spurr embedding medium (Ted Pella, Inc., Redding, Calif.). Ultrathin sections (70 nm) were obtained by microtomy and stained with potassium permanganate and Sato's lead sequentially before examined with a transmission electron microscope (1200 EX; JEOL, Peabody, Mass.).

[2] = system: New Zealand White rabbits; assay: RGD-peptide injection in the anterior chamber of rabbit eye; type: in vivo; settings: 500 μg in PBS injected into the anterior chamber of one eye, live rabbits n=3
Method: New Zealand White rabbits of approximately five pounds were used for this experiment. Baseline Intraocular Pressure (IOP) data was obtained using a MENTOR tonopen prior to anaesthesia. The rabbits were anaesthetized with IM KETAMINE and topical proparacaine. The GRGDTP peptide (500 μg) was dissolved in phosphate buffered saline (PBS) and injected into the anterior chamber of only one eye. Further intraocular pressure mesurements were performed with a tonopen and data recorded in a time dependent manner, as shown in FIG. 8.
The results are expressed as percent change in IOP as compared to basal values obtained before injection of the RGD peptide. The basal value was taken as IOP (0%) in both eyes and the contralateral eye was used as control.

[3] = system: Human Schlemm's canal (SC) cell monolayers; assay: SC cell monolayer permeability barrier function (HRP diffusion on Transwells); type: cell-based; settings: 200 μM peptide, 1 hr, complete medium, n=7; mean ± S.E.
Method: (§1) Human cadaver eye tissues were obtained from the National Disease Research Interchange (NDRI; Philadelphia, Pa.), and the SC cells were isolated following the techniques previously described (Stammer et al, Invest. Ophthalmol. Vis. Sci. 39:1804 (1998)). The cells were grown in Dulbecco's modified Eagle's medium with 10% fetal bovine serum, 2 mM L-glutamine, 100 U/ml penicillin G and 100 μg/ml streptomycine sulfate (all from GibcoBRL, Gaithersburg, Md.). The primary cultures of SC cells were used between the passages of three to six, throughout the experiments.
To correlate the specific effects of the RGD peptide compared to a control RGE peptide, the standard device was used to measure the monolayer permeability barrier function on Transwells cell culture chambers (fibronectin-coated polycarbonate filters, […] pore size, Costar Corp.) as described by Lampugnani et al (J. Cell Biol. 112: 479-490 (1991)). The diffusion of horseradish peroxidase (HRP) through SC cell monolayer was determined with and without RGD hexapeptide GRGDTP (Sigma, St. Louis, Mo.) or known control RGE hexapeptide GRGESP (GibcoBRL, Gaithersberg, Md.). […] Results were expressed as percent change in enzyme activity as compared to untreated controls. Values were obtained from three independent experiments and expressed as means±S.E. A paired t-test analysis was also performed with respect to untreated controls.

[4] = system: Human Schlemm's canal (SC) cell monolayers; assay: SC cells monolayer integrity assay in vitro (phase contrast, F-actin and focal adhesion staining); type: cell-based; settings: complete medium, 37 C
Method: as §1
To evaluate the effect of RGD peptide on monolayer integrity, the SC cells were seeded on fibronectin-coated coverslips and grown for 10 days in complete medium. Before the experiment, the gaps in the confluent cells layer on coverslips were examined thoroughly. Further, the culture media was replaced with RGD peptide or control RGE peptide (200 μM)-containing complete medium and incubated at 37° C. in CO2 incubator. The changes in morphology (cell retraction, cell-cell attachments) were followed for 3 hrs. The induced morphological changes were monitored by phase contrast microscopy (Zeiss IM 35). For clear illustration of the specific and non-toxic effects of RGD peptide, the changes in SC cells monolayer integrity and reversibility were followed after treatment at higher concentration (1.0 mM) as compared to control RGE peptide. The coverslips were fixed with 3.7% formaldehyde and stained for F-actin and focal adhesions as described earlier (Lampugnani et al, J. Cell Biol. 112: 479-490 (1991)). The RGD-containing medium was removed with complete culture medium after three times washing and incubation was continued. Further, the reversibility of the gaps formation was followed.

Substance	cellular toxicity in outflow pathway of perfused eyes [1]	cellular toxicity in outflow pathway of perfused eyes ([1]; listed as RGD)	evidence of anterior chamber inflammation and wound leakage [2]	increase in SC cells monolayer permeability (HRP diffusion) as compared to untreated controls [3]	morphological effect on SC cell monolayer integrity ([4]; 200 μM peptide, up to 3 hrs)	morphological effect on SC cell monolayer integrity ([4]; 1.0 mM peptide, 3 hrs)	morphological effect on SC cell monolayer integrity ([4]; 1.0 mM peptide, 3 hrs, listed as RGE peptide)
GRGDTP [GRGDTP]	did not show signs of cellular toxicity	no sign of cellular toxicity	no clinically significant changes				
GRGESP				12%±3	compact cellular morphology	no such effect was noted	no detectable effects
